The values below come from US20240132450A1, “MODULATORS OF G PROTEIN-COUPLED RECEPTOR 88” (ACADIA Pharmaceuticals Inc., priority 2020, published 2024).

What is called EC50 is the midpoint of the concentration-response curve.

Structures are written as SMILES. Where only a bound is given, the exact number is not on record here.

In the assay the target is hGPR88 receptor (Homo sapiens, UniProt Q9GZN0). In words: hGPR88-HEK cAMP accumulation assay. As to conditions: GRP88 agonist activity (EC50), HEK-293 cells expressing human recombinant GPR88, forskolin 200 nM, High/Medium/Low bands.
Sequence of hGPR88 receptor (Q9GZN0 whole entry): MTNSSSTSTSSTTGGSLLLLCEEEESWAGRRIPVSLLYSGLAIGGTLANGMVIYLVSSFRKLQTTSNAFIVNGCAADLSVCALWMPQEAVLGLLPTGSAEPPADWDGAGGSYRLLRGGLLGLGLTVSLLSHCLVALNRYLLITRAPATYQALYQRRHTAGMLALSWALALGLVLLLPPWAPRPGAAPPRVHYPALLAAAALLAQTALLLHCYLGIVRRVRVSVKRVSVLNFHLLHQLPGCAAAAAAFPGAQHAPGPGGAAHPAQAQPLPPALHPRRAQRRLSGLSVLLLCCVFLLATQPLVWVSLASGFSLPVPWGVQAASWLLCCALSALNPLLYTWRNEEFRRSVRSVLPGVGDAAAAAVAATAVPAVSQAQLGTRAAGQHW
Turning to `CCOc1ccc(-c2ccc(NC(=O)C(C)(C)Oc3ccc(OC)cc3)cc2)cn1` [Example 94, N-(4-(6-ethoxypyridin-3-yl)phenyl)-2-(4-methoxyphenoxy)-2-methylpropanamide], the EC50 was in the range of 1000 to 5000 nM.
Turning to `COc1ccc(OC(C)(C)C(=O)Nc2ccc(-c3cnc(N(C)C)nc3)cc2)cc1` [Example 95, N-(4-(2-(dimethylamino)pyrimidin-5-yl)phenyl)-2-(4-methoxyphenoxy)-2-methylpropanamide], the EC50 was 1000 to 5000 nM.
To `COCc1ccc(-c2ccc(NC(=O)C(C)(C)Oc3ccc(Cl)cc3Cl)cc2)cc1` [Example 96, 2-(2,4-dichlorophenoxy)-N-(4′-(methoxymethyl)-[1,1′-biphenyl]-4-yl)-2-methylpropanamide] belongs over 5000 nM; to `COCc1ccc(-c2ccc(NC(=O)C(C)(C)Oc3ccc(Cl)c(C)c3)cc2)cc1` [Example 97, 2-(4-chloro-3-methylphenoxy)-N-(4′-(methoxymethyl)-[1,1′-biphenyl]-4-yl)-2-methylpropanamide], 1000 to 5000 nM.
Turning to `COCc1ccc(-c2ccc(NC(=O)C(C)(C)Oc3cccc(OC)c3)cc2)cc1` [Example 98, N-(4′-(methoxymethyl)-[1,1′-biphenyl]-4-yl)-2-(3-methoxyphenoxy)-2-methylpropanamide], the EC50 is 1000 to 5000 nM.
The result for `COCc1ccc(-c2ccc(NC(=O)C(C)(C)Oc3c(F)cccc3F)cc2)cc1` [Example 99, 2-(2,6-difluorophenoxy)-N-(4′-(methoxymethyl)-[1,1′-biphenyl]-4-yl)-2-methylpropanamide] reads 1000 to 5000 nM.
To `COCc1ccc(-c2ccc(NC(=O)C(C)(C)Oc3cccc(C(F)(F)F)c3)cc2)cc1` [Example 100, N-(4′-(methoxymethyl)-[1,1′-biphenyl]-4-yl)-2-methyl-2-(3-(trifluoromethyl)phenoxy)propanamide] belongs 1000 to 5000 nM; to `COCc1ccc(-c2ccc(NC(=O)C(C)(C)Oc3ccccc3OC)cc2)cc1` [Example 101, N-(4′-(methoxymethyl)-[1,1′-biphenyl]-4-yl)-2-(2-methoxyphenoxy)-2-methylpropanamide], 1000 to 5000 nM.
The result for `COCc1ccc(-c2ccc(NC(=O)C(C)(C)Oc3ccc(C(N)=O)cc3)cc2)cc1` [Example 102, 4-((1-((4′-(methoxymethyl)-[1,1′-biphenyl]-4-yl)amino)-2-methyl-1-oxopropan-2-yl)oxy)benzamide] reads 1000 to 5000 nM; that for `COCc1ccc(-c2ccc(NC(=O)C(C)(C)Oc3ccccc3F)cc2)cc1` [Example 103, 2-(2-fluorophenoxy)-N-(4′-(methoxymethyl)-[1,1′-biphenyl]-4-yl)-2-methylpropanamide], 1000 to 5000 nM; that for `COCc1ccc(-c2ccc(NC(=O)C(C)(C)Oc3ccc(C(F)(F)F)cc3)cc2)cc1` [Example 104, N-(4′-(methoxymethyl)-[1,1′-biphenyl]-4-yl)-2-methyl-2-(4-(trifluoromethyl)phenoxy)propanamide], 1000 to 5000 nM.
Consider `O=C(c1ccc(-c2ccc(NC(=O)C3(Oc4ccc(F)cc4)CC3)cc2)cc1)N1CCOCC1` [Example 105, 1-(4-fluorophenoxy)-N-(4′-(morpholine-4-carbonyl)-[1,1′-biphenyl]-4-yl)cyclopropane-1-carboxamide], for which the EC50 lay in the range of 1000 to 5000 nM.
The result for `CCOc1ccc(-c2ccc(NC(=O)C3(Oc4ccc(F)cc4)CC3)cc2)cn1` [Example 106, N-(4-(6-ethoxypyridin-3-yl)phenyl)-1-(4-fluorophenoxy)cyclopropane-1-carboxamide] reads 1000 to 5000 nM.
With `CN(C)c1ncc(-c2ccc(NC(=O)C3(Oc4ccc(F)cc4)CC3)cc2)cn1` [Example 107, N-(4-(2-(dimethylamino)pyrimidin-5-yl)phenyl)-1-(4-fluorophenoxy)cyclopropane-1-carboxamide], the EC50 lay within 1000 to 5000 nM.
`CN(C(=O)C(C)(C)Oc1ccc(F)cc1)c1ccc(-c2ccc(CO)cc2F)cc1` [Example 108]: the EC50 fell in the range of 1000 to 5000 nM.
The result for `COc1ccc(OC(C)(C)C(=O)Nc2ccc(-c3ccc(CN4CCOCC4)cc3)cc2)cc1` [Example 113] reads 1000 to 5000 nM; that for `COCc1ccc(-c2ccc(NC(=O)C(C)(C)Oc3ccc(F)cc3)cc2)c(F)c1` [Example 114, N-(2′-fluoro-4′-(methoxymethyl)-[1,1′-biphenyl]-4-yl)-2-(4-fluorophenoxy)-2-methylpropanamide], 1000 to 5000 nM; that for `COCc1ccc(-c2ccc(N(C)C(=O)C(C)(C)Oc3ccc(F)cc3)cc2)c(F)c1` [Example 115, N-(2′-fluoro-4-(methoxymethyl)-[1,1′-biphenyl]-4-yl)-2-(4-fluorophenoxy)-N,2-dimethylpropanamide], under 1000 nM.
To `CCOc1ccc(-c2ccc(NC(=O)C(C)(C)Oc3ccc(C#N)cc3)cc2)cn1` [Example 116, 2-(4-cyanophenoxy)-N-(4-(6-ethoxypyridin-3-yl)phenyl)-2-methylpropanamide] belongs 1000 to 5000 nM; to `CN(C)c1ncc(-c2ccc(NC(=O)C(C)(C)Oc3ccc(C#N)cc3)cc2)cn1` [Example 117, 2-(4-cyanophenoxy)-N-(4-(2-(dimethylamino)pyrimidin-5-yl)phenyl)-2-methylpropanamide], 1000 to 5000 nM.
The result for `COC(C)c1ccc(-c2ccc(NC(=O)C(C)(C)Oc3ccc(F)cc3)cc2)cc1` (stereo not shown) [Example 119, 2-(4-fluorophenoxy)-N-(4′-(1-methoxyethyl)-[1,1′-biphenyl]-4-yl)-2-methylpropanamide] reads 1000 to 5000 nM.
In the case of `CC(C)(Oc1ccc(C#N)cc1)C(=O)Nc1ccc(-c2ccc(CN3CCOCC3)cc2)cc1` [Example 124, 2-(4-cyanophenoxy)-2-methyl-N-(4′-(morpholinomethyl)-[1,1′-biphenyl]-4-yl)propenamide], the EC50 was under 1000 nM.
The result for `CN(C)c1ccc(-c2ccc(NC(=O)C3CC3c3ccccn3)cc2)cn1` (stereo not shown) [Example 125, N-(4-(6-(dimethylamino)pyridin-3-yl)phenyl)-2-(pyridin-2-yl)cyclopropane-1-carboxamide] reads over 5000 nM.
To `CN(C)c1ncc(-c2ccc(NC(=O)C3CC3c3ccccn3)cc2)cn1` (stereo not shown) [Example 126, N-(4-(2-(dimethylamino)pyrimidin-5-yl)phenyl)-2-(pyridin-2-yl)cyclopropane-1-carboxamide] belongs over 5000 nM; to `COCc1ccc(-c2ccc(NC(=O)C3(Oc4ccc(F)cc4)CCC3)cc2)cc1` [Example 127, 1-(4-fluorophenoxy)-N-(4′-(methoxymethyl)-[1,1′-biphenyl]-4-yl)cyclobutane-1-carboxamide], under 1000 nM; to `COCc1ccc(-c2ccc(NC(=O)C(C)(C)Oc3ccc(C)cc3)cc2)cc1` [Example 128, N-(4′-(methoxymethyl)-[1,1-biphenyl]-4-yl)-2-methyl-2-(p-tolyloxy) propenamide], under 1000 nM.
The result for `O=C(Nc1ccc(-c2ccc(CN3CCOCC3)cc2)cc1)C1(Oc2ccc(F)cc2)CC1` [Example 129, 1-(4-fluorophenoxy)-N-(4′-(morpholinomethyl)-[1,1′-biphenyl]-4-yl)cyclo propane-1-carboxamide] reads under 1000 nM.
As to `CC(C)OCc1ccc(-c2ccc(NC(=O)C(C)(C)Oc3ccc(F)cc3)cc2)cc1` [Example 131, 2-(4-fluorophenoxy)-N-(4′-(isopropoxymethyl)-[1,1′-biphenyl]-4-yl)-2-methylpropanamide], the EC50 was over 5000 nM.
